In patent publication US4515951A, “Preparation of 5,6,7,7a-tetrahydro-4H-thieno[3,2-c]pyridin-2-one compounds” (Sanofi, priority 1980, dated 1985):

What was measured:
experimental thrombosis = test: anti-thrombosis activity, experimental thrombosis caused by extracorporal circulation (Umetsu and Sonoi); format: in vivo, rats; settings: control (5% gum arabic) 30.41
Method: This activity was studied by the experimental thrombosis method caused by extracorporal circulation, described by Umetsu and Sonoi (Thrombos. Haemost., 39, […]).
The left jugular vein and the right external carotid are exposed in rats anaesthetised by an intraperitoneal injection of pentobarbital. A shunt is provided which consists of a central catheter and two lateral catheters. A natural white silk thread is introduced into the central part and the circulation is restarted for 20 minutes. After stopping the circulation by clamping, the thread is gently withdrawn and weighed immediately.
Treatment was carried out for 48 hours, 24 hours and 2 hours before the start of the blood circulation in shunt.
The test compounds were administered orally to different groups of animals in the form of a suspension in 10 ml. of 5% gum arabic/kg., the doses used being 12.5 mg./kg., 25 mg./kg., 50 mg./kg., 100 mg./kg. and 200 mg./kg.

[1] = test system: platelet aggregation by collagen; test: inhibiting action on platelet aggregation by collagen (COLLAGEN TEST), plasma of orally treated rats; format: in vivo, Wistar rats; settings: Rattus norvegicus, po, 3 h, read-out: Percentage inhibition of platelet aggregation (collagen test)
Method: (§1) A sample of blood is taken from the jugular vein of Wistar rats, which have previously been treated with the compound to be tested. From this blood, which is citrate-treated and centrifuged, there is reconstituted a plasma containing 600,000±20,000 platelets per mm^3, which is employed in all the aggregation measurements.
(§2) 0.4 ml. of plasma is treated in a siliconised tube provided with a bar magnet which is also siliconised. The tube is introduced into an aggregometer connected to an apparatus with which variations in optical density can be recorded. When the light transmission has reached a stable value, 0.5 ml. of a solution containing […] of ADP (adenosine diphosphate)is introduced into the tube.
(§3) Platelet aggregation then causes an increase in light transmission, followed by a reduction in light transmission due to the subsequent disaggregation stage.
(§4) The maximum variation in optical density thus determined relative to that of a plasma free of platelets characterises the intensity of aggregation.
(§5) The measurements are carried out during the 2 hours which follow the taking of the blood sample, this sample being taken 3 hours after treatment with the derivative to be tested.
The ADP solution is replaced by a solution of collagen (extracted from cattle tendons).
(§6) Groups of 20 rats were used. Each group received a single dose of the compound to be tested, administered orally, the same compound being administered at different doses ranging from 5 mg./kg. to 100 mg./kg.
(§7) The results obtained are given in the following Tables II and III, which show the percentage inhibition of platelet aggregation obtained relative to the control experiment, 3 hours after treatment with the compound to be tested.

[2] = test system: platelet aggregation by ADP; test: inhibiting action on platelet aggregation by ADP (ADP TEST), plasma of orally treated rats; format: in vivo, Wistar rats; settings: Rattus norvegicus, po, 3 h, read-out: Percentage inhibition of platelet aggregation (ADP test)
Method: as §1, §2, §3, §4, §5, §6, §7

[3] = test system: platelet aggregation induced by ADP; test: kinetic study of platelet aggregation induced by ADP (Born's nephelometric method, Bryston aggregometer), intraperitoneal; format: in vivo; settings: rats
Method: A further experiment was carried out, relating to the kinetic study of the compounds of the present invention.
The blood sample is taken 10 minutes and 60 minutes after this administration and is centrifuged to obtain a plasma enriched in platelets.
The platelet aggregation in the plasma, induced by ADP is measured in a Bryston aggregometer, using Born's nephelometric method.

in vivo = settings: mouse, iv
Description: This study was concerned with the acute, chronic, sub-chronic and delayed toxicities.

In the case of O=C1C=C2CN(Cc3ccccc3Cl)CCC2S1 (centres unmarked) [Derivative 1, 5-(o-Chlorobenzyl)-5,6,7,7a-tetrahydro-4H-thieno-[3,2-c]pyridin-2-one], the “Average weight of the thrombi” value (experimental thrombosis; 12.5 mg/kg oral, 48, 24 and 2 hours before) was 27.45 mg, the “Average weight of the thrombi” value (experimental thrombosis; 25 mg/kg oral, 48, 24 and 2 hours before) was 12.21 mg and the “Average weight of the thrombi” value (experimental thrombosis; 50 mg/kg oral, 48, 24 and 2 hours before) was 6.01 mg. The “Average weight of the thrombi” value (experimental thrombosis; 100 mg/kg oral, 48, 24 and 2 hours before) was 4.76 mg, the inhibition at 5 mg/kg [1] was 16.8% and the inhibition at 12.5 mg/kg [1] was 46.8%. The inhibition at 25 mg/kg [1] was 86.7%, the inhibition at 50 mg/kg [1] was 89.6% and the inhibition at 100 mg/kg [1] was 89.8%. The inhibition at 5 mg/kg [2] was 51%, the inhibition at 12.5 mg/kg [2] was 83.6% and the inhibition at 25 mg/kg [2] was 83.7%. For the same compound, the inhibition at 50 mg/kg [2] was 84%, the inhibition at 100 mg/kg [2] was 84.1% and the “percentage inhibition as a function of time (platelet aggregation, ADP)” value ([3]; 10 minutes after 100 mg/kg intraperitoneal in propylene glycol) was 42%. For the same compound, the “percentage inhibition as a function of time (platelet aggregation, ADP)” value ([3]; 60 minutes after 100 mg/kg intraperitoneal in propylene glycol) was 97% and the LD50 at 24 h (in vivo) was 113 mg/kg.
